We go through 3 compounds from publication PMC11851430, “Workflow for E3 Ligase Ligand Validation for PROTAC Development” (ACS Chemical Biology, 2025).

Structures are written as SMILES.

Test in all cases: DSF assay
Type in all cases: binding
Details in all cases: 20 µM compound

For one test, the target named is T1, DYRK2A (Homo sapiens, UniProt Q92630).
T1 construct: purchased in-house DSF panel (SGC-style construct names; the trailing A/B is a construct suffix)
T1 sequence (Q92630 146-552): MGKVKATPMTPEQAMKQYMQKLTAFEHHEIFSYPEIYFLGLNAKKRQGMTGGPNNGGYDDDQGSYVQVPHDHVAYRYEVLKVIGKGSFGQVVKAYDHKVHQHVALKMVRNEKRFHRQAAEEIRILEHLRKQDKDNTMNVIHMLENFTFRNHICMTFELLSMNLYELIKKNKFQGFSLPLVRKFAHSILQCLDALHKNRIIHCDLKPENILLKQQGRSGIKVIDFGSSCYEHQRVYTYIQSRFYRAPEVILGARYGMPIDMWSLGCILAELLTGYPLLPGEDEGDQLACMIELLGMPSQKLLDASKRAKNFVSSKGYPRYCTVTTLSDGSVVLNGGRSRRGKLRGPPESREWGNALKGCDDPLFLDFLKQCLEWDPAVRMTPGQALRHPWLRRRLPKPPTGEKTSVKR

For a further test, the target named is T2, BMPR2A (Homo sapiens, UniProt Q13873).
T2 construct: purchased in-house DSF panel (SGC-style construct names; the trailing A/B is a construct suffix)
T2 sequence (Q13873 27-1038): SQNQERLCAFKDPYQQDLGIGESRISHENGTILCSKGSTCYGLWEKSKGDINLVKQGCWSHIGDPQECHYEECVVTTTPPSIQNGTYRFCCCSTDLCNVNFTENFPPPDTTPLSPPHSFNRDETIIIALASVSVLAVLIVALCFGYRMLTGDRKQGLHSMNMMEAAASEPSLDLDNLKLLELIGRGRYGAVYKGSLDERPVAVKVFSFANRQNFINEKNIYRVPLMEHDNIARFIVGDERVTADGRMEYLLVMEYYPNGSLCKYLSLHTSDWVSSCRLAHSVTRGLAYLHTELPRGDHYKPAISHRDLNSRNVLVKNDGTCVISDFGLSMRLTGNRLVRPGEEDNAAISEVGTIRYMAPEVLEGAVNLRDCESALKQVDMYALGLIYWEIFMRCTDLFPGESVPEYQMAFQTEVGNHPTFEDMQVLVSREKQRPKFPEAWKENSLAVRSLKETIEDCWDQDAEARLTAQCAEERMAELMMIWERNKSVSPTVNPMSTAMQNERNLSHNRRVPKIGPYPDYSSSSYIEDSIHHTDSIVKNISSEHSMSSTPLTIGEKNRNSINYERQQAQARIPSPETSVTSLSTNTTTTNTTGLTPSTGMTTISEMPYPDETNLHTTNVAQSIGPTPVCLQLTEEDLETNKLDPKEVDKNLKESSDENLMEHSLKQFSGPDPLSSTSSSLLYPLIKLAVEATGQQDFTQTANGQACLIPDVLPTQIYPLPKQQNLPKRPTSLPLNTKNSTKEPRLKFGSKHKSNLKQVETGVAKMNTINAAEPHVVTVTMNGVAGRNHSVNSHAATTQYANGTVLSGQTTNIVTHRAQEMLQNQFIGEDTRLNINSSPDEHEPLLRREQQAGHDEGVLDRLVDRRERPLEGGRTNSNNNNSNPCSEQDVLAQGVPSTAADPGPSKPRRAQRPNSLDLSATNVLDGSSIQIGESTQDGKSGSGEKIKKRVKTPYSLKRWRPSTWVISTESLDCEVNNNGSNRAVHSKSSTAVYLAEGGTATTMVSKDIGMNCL
How it is done:
(§1) Excitation and emission filters […]
(§2) curve. […] Measurements were
(§3) Kinobeads selectivity profiling of PROTACs
(§4) (Multiplexion, Heidelberg, Germany).
(§5) The cell lysate was ultracentrifuged and diluted
(§6) NaF, 1 mM DTT, protease inhibitors and phosphatase inhibitors to a final concentration of 5 mg/ml as determined by Bradford assay. For selectivity profiling of compounds the cell lysate (2.5 mg of total proteins per pulldown) was pre-incubated with increasing compound […]
(§7) µM) for 45 min at 4 °C in an end-over-end shaker. Subsequently, lysates were incubated with Kinobeads epsilon (17 µL settled beads) for 30 min at 4 °C. To assess the degree of protein depletion from the lysates by Kinobeads, the flow-through of the DMSO control was recovered

A further test addresses T3, CLK3A (Homo sapiens, UniProt P49761).
T3 construct: purchased in-house DSF panel (SGC-style construct names; the trailing A/B is a construct suffix)
As to the method:
as §1, §2, §3, §4, §5, §6, §7

In the next test the target is T4, CSNK1DA (Homo sapiens, UniProt P48730).
T4 construct: purchased in-house DSF panel (SGC-style construct names; the trailing A/B is a construct suffix)
T4 sequence (P48730 1-294): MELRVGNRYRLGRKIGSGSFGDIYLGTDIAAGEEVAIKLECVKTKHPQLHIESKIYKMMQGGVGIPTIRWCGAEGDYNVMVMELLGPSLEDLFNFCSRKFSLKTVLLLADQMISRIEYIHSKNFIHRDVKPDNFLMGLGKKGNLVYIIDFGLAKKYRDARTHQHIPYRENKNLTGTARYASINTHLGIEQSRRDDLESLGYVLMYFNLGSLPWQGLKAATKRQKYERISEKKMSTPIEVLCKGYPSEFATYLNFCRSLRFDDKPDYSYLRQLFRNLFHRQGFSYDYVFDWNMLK
How it is done: as §1, §2, §3, §4, §5, §6, §7

The target in another test is T5, DAPK3A (Homo sapiens, UniProt O43293).
T5 construct: purchased in-house DSF panel (SGC-style construct names; the trailing A/B is a construct suffix)
As to the method: as §1, §2, §3, §4, §5, §6, §7

A further test has as its target T6, EPHA5A (Homo sapiens, UniProt P54756).
T6 construct: purchased in-house DSF panel (SGC-style construct names; the trailing A/B is a construct suffix)
T6 sequence (P54756 653-939): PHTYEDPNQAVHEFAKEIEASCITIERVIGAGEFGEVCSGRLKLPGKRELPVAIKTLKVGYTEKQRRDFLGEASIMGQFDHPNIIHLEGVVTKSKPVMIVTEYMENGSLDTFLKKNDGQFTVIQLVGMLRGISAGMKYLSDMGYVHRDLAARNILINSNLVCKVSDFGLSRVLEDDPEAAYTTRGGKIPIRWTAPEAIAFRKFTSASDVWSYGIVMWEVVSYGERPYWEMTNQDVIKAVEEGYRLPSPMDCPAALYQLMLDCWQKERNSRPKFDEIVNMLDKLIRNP
How it is done:
as §1, §2, §3, §4, §5, §6, §7

A further test deals with T7, MAPK8B (Homo sapiens, UniProt P45983).
T7 construct: purchased in-house DSF panel (SGC-style construct names; the trailing A/B is a construct suffix)
How it is done:
as §1, §2, §3, §4, §5, §6, §7

The next test addresses T8, MAPK9A (Homo sapiens, UniProt P45984).
T8 construct: purchased in-house DSF panel (SGC-style construct names; the trailing A/B is a construct suffix)
How it is done: as §1, §2, §3, §4, §5, §6, §7

A further test deals with T9, PIM1A (Homo sapiens, UniProt P11309).
T9 construct: purchased in-house DSF panel (SGC-style construct names; the trailing A/B is a construct suffix)
As to the method:
as §1, §2, §3, §4, §5, §6, §7

The test system of a further test is RPS6KA1A. How it is done: as §1, §2, §3, §4, §5, §6, §7

T3 sequence (P49761 127-484): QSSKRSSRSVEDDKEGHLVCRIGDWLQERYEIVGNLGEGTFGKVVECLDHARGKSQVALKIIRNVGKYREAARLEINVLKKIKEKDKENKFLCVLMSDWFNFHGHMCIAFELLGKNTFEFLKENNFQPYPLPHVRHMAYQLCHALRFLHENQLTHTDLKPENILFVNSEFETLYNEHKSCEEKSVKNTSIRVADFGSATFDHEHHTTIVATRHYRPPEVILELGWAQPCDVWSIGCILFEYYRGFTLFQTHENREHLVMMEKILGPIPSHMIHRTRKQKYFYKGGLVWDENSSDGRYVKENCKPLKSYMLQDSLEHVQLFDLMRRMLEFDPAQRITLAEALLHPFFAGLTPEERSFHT
T7 sequence (P45983 1-364): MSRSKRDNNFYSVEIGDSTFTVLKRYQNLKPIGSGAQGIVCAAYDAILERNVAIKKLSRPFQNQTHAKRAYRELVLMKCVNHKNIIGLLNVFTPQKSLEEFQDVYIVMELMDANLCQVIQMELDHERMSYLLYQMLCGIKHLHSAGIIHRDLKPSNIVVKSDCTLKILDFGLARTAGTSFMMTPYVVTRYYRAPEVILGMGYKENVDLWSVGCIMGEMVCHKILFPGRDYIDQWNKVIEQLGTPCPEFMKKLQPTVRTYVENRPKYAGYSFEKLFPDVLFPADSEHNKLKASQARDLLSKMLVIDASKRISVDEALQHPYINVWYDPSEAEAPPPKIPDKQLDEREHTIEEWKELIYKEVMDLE
T5 sequence (O43293 9-289): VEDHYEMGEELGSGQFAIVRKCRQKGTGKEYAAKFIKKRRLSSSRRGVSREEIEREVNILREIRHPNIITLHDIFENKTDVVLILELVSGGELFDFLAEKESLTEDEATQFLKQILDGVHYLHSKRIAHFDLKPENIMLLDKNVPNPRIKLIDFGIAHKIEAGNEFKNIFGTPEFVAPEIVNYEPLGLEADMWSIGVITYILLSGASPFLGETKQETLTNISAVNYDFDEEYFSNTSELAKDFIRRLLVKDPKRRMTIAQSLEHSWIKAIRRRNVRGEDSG
T8 sequence (P45984 1-364): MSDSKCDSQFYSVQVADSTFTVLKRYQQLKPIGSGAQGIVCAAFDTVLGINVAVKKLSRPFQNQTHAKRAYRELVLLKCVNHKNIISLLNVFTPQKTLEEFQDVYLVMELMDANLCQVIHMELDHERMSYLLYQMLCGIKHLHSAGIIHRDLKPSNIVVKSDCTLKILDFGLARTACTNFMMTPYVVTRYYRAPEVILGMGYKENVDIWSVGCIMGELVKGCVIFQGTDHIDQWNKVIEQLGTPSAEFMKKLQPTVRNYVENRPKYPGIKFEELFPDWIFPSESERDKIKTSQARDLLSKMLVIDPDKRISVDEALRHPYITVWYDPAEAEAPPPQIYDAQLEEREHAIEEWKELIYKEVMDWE
T9 sequence (P11309 whole entry): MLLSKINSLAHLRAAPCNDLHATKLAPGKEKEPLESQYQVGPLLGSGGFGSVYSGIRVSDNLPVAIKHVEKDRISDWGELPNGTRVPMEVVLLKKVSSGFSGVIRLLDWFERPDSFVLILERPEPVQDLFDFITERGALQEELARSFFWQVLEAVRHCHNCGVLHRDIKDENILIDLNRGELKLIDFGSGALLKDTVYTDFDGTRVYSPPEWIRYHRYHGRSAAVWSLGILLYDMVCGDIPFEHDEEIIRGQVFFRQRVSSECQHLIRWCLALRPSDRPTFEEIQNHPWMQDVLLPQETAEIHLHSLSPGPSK

By ΔTm is commonly meant the shift of the melting midpoint relative to a reference. Take `CC(C)(C)OC(=O)NCCOCCOCCOCCOCCC(=O)N1CCN(c2cc(Nc3cc(C4CC4)[nH]n3)nc(Nc3ccc(CC#N)cc3)n2)CC1` [4-L]: the ΔTm at 20 µM worked out at 7.18 °C on DYRK2A; 9.02 °C at BMPR2A; 6.42 °C on CLK3A; 3.01 °C on CSNK1DA; 7.59 °C at DAPK3A; 7.97 °C at EPHA5A. Besides, the ΔTm at 20 µM at MAPK8B was 6.93 °C; at MAPK9A, 4.27 °C; at PIM1A it was -0.76 °C. For the same compound, the ΔTm in the test on RPS6KA1A turned out to be 0.76 °C.

Take `CCOC(=O)c1cc(Nc2cc(C3CC3)[nH]n2)nc(Nc2ccc(CC#N)cc2)n1` [compound 5]: the thermal shift (ΔTm) at 20 µM at DYRK2A turned out to be 7.58 °C; at BMPR2A, 7.28 °C; on CLK3A it was 9.57 °C; at CSNK1DA, 2.62 °C; at DAPK3A, 10.6 °C; on EPHA5A it was 5.7 °C. In addition, the figures for the ΔTm at 20 µM on MAPK8B, at MAPK9A and on PIM1A were 4.31 °C, 2.84 °C and -0.9 °C, respectively. In addition, the ΔTm in the test on RPS6KA1A turned out to be 1.55 °C.

For the compound `CC(C)(C)OC(=O)NCCCOCCOCCOCCCNC(=O)c1cc(Nc2cc(C3CC3)[nH]n2)nc(Nc2ccc(CC#N)cc2)n1` [5-L], the ΔTm at 20 µM on DYRK2A worked out at 7.69 °C; on BMPR2A, 7.29 °C; at CLK3A it was 9.33 °C; on CSNK1DA, 5.43 °C; on DAPK3A it was 7.97 °C; on EPHA5A, 4.95 °C. Also, the ΔTm at 20 µM was 6.48 °C at MAPK8B, 4.61 °C on MAPK9A and -1.48 °C on PIM1A. Also, the ΔTm in the test with RPS6KA1A was 1.85 °C.
